According to patent publication US20040116480A1, “Oxime ether compound and agricultural or horticultural bactericide” (priority 2001, published 2004):

Test system: kidney bean gray mold fungus (Botrytis cinerea)
Assay: Test on kidney bean gray mold control, dipped flowers on detached leaves
Type: in vivo
Conditions: 168 h, 50 ppm active ingredient, kidney bean flowers (Nagauzura) dipped, then spore solution sprayed, 20° C., 7 days, lesion diameter, read-out: control efficacy
Description: The following test examples show the efficacy of the compounds of the present invention as active ingredients of various agents for controlling plant diseases. The control efficacy was determined by visual observation of the infested states of test plants, that is, degrees of legions and growth of colonies on leaves and stalks, when they were examined, in comparison with those of control plants.
Test on Kidney Bean Gray Mold Control
Flowers of kidney bean (variety: Nagauzura) grown in a flat vessel for culturing seedlings were cut, and dipped into a solution of an emulsifiable concentrate prepared for a compound of the present invention, diluted to a concentration of 50 ppm based on the active ingredient. After the dipping, the flowers were dried at room temperature. Then a spore solution of kidney bean gray mold fungus (Botrytis cinerea) was sprayed onto the flowers. The treated flowers were placed on leaves detached from healthy kidney bean plants, placed in a temperature-controlled room at 20° C. with high humidity and repeated lighting of 12-hour intervals, and incubated for 7 days. Diameters of the legions on the leaves were measured and compared with those of the control healthy leaves to determine the control efficacy.

SMILES | pest or weed control at 50 ppm [%]
COc1ccnc(OC)c1CO/N=C(\C)c1cc(C)cc(C)n1 [II-14, 1-(4,6-dimethyl-2-pyridinyl)ethanone O-[(2,4-dimethoxy-3-pyridinyl)methyl]oxime] | ≥ 75
COc1ccnc(OC)c1CO/N=C/c1cc(C#N)cc(C)n1 [II-27, 4-cyano-6-methyl-2-pyridinecarboxyaldehyde O-[(2-,4-dimethoxy-3-pyridinyl)methyl]oxime] | ≥ 75
COc1nccc(C)c1CO/N=C/c1cc(C#N)cc(C)n1 [II-28, 4-cyano-6-methyl-2-pyridinecarboxyaldehyde O-[(2-methoxy-4-methyl-3-pyridinyl)methyl]oxime] | ≥ 75
COc1ncnc(OC)c1CO/N=C/c1cc(C#N)cc(C)n1 [II-29, 4-cyano-6-methyl-2-pyridinecarboxyaldehyde O-[(4,6-dimethoxy-5-pyrimidinyl)methyl]oxime] | ≥ 75
COc1ncnc(OC)c1CO/N=C/c1cc(Cl)cc(C)n1 [II-20, 4-chloro-6-methyl-2-pyridinecarboxyaldehyde O-[(4,6-dimethoxy-5-pyrimidinyl)methyl]oxime] | ≥ 75
COc1nccc(C)c1CO/N=C/c1cc(C)cc(C)n1 [II-3, 4,6-dimethyl-2-pyridinecarboxyaldehyde O-[(2-methoxy-4-methyl-3-pyridinyl)methyl]oxime] | ≥ 75
COc1ncnc(OC)c1CO/N=C(\C)c1cc(C)cc(C)n1 [II-17, 1-(4,6-dimethyl-2-pyridinyl)ethanone O-[(4,6-dimethoxy-5-pyrimidinyl)methyl]oxime] | ≥ 75
COc1ncnc(OC)c1CO/N=C/c1cc(C(F)(F)F)cc(C)n1 [II-36, 6-methyl-4-trifluoromethyl-2-pyridinecarboxyaldehyde O-[(4,6-dimethoxy-5-pyrimidinyl)methyl]oxime] | ≥ 75
